Data from patent publication US10538497B2, “Compounds as indoleamine 2,3-dioxygenase inhibitors” (Merck Sharp & Dohme Corp., priority 2015, dated 2020).

Legend:
IDO1 [1] = biological target: T1, IDO1 (Homo sapiens (Human), UniProt P14902); assay: IDO1 Cellular Assay in Hela Cells Stimulated with IFNγ; assay type: cell-based; conditions: Hela cells stimulated with IFNγ 100 ng/mL; read-out: IDO1 HELA Cell Assay, IC50
IDO1 [2] = biological target: T1, IDO1; assay: IDO1 Cellular Assay in Frozen HEK293 Cells Transiently Transfected with Human IDO1; assay type: cell-based; conditions: HEK293 cells transiently transfected with human IDO1; read-out: IDO1 HEK293 Cell Assay, IC50
IDO1 [3] = biological target: T1, IDO1; assay: IDO1 Enzyme Assay; conditions: HIS-tagged recombinant IDO1, 40 nM
[4] = read-out: IDO1 Enzyme Assay, IC50

T1 sequence (P14902 whole entry): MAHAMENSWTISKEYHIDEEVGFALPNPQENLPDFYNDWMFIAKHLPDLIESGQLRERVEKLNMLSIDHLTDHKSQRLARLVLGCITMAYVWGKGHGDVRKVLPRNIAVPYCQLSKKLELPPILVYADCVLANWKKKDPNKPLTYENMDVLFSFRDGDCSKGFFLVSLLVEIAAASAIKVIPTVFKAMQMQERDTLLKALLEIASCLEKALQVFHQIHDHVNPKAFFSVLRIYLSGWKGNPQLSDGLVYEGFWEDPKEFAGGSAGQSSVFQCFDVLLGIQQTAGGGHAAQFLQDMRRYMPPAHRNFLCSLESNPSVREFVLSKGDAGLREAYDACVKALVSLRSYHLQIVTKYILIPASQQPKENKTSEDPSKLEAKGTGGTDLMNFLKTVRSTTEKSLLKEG

Row | SMILES | IC50 (IDO1 [1]) [nM] | IC50 (IDO1 [2]) [nM] | IC50 (IDO1 [3]; [4]) [nM] | IC50 (IDO1 [3]; IDO1 Enzyme Assay, IC50, nM) [nM]
1 | OCCSc1nonc1/C(=N/O)Nc1ccc(F)c(C(F)(F)F)c1 [Example 50, N-[4-fluoro-3-(trifluoromethyl)phenyl]-N′-hydroxy-4-[(2-hydroxyethyl)sulfanyl]-1,2,5-oxadiazole-3-carboximidamide] | 45.7 | 67.5 | 99.5 | 
2 | CN(C)CCSc1nsnc1/C(=N/O)Nc1ccc(F)c(Br)c1 [Example 209, N-(3-bromo-4-fluorophenyl)-4-{[2-(dimethylamino)ethyl]sulfanyl}-N′-hydroxy-1,2,5-thiadiazole-3-carboximidamide] | 968 | 770 | 1280 | 
3 | CC(O)C(CO)NC(=O)CSc1nonc1/C(=N/O)Nc1ccc(F)c(Br)c1 (stereo not drawn) [Example 176, 2-({4-[N-(3-bromo-4-fluorophenyl)-N′-hydroxycarbamimidoyl]-1,2,5-oxadiazol-3-yl}sulfanyl)-N-[2-hydroxy-1-(hydroxymethyl)propyl]acetamide] | 127 | 182 | 116 | 
4 | OC[C@@H](O)CSc1nonc1/C(=N/O)Nc1ccc(F)c(C(F)(F)F)c1 [Example 165, 4-{[(2R)-2,3-dihydroxypropyl]sulfanyl}-N-[4-fluoro-3-(trifluoromethyl)phenyl]-N′-hydroxy-1,2,5-oxadiazole-3-carboximidamide] | 159 | 130 | 126 | 
5 | O/N=C(\Nc1ccc(F)c(Br)c1)c1nonc1SCC(O)c1ccccc1 (stereo not drawn) [Example 74, N-(3-bromo-4-fluorophenyl)-N′-hydroxy-4-[(2-hydroxy-2-phenylethyl)sulfanyl]-1,2,5-oxadiazole-3-carboximidamide] | 388 | 579 | 503 | 
6 | ON=C(Nc1ccc(F)c(Br)c1)c1nonc1SCc1c[nH]cn1 [Example 159, N-(3-bromo-4-fluorophenyl)-N′-hydroxy-4-[(1H-imidazol-4-ylmethyl)sulfanyl]-1,2,5-oxadiazole-3-carboximidamide] | 153 | 81.7 |  | 105
7 | Cn1c(CSc2nonc2/C(=N/O)Nc2ccc(F)c(Cl)c2)n[nH]c1=O [Example 133, N-(3-chloro-4-fluorophenyl)-N′-hydroxy-4-{[(4-methyl-5-oxo-4,5-dihydro-1H-1,2,4-triazol-3-yl)methyl]sulfanyl}-1,2,5-oxadiazole-3-carboximidamide] | 235 | 226 | 71.5 | 
8 | NS(=O)(=O)N1CCC(Sc2nonc2/C(=N/O)Nc2ccc(F)c(Br)c2)CC1 [Example 76, N-(3-bromo-4-fluorophenyl)-N′-hydroxy-4-[(1-sulfamoylpiperidin-4-yl)sulfanyl]-1,2,5-oxadiazole-3-carboximidamide] | 43.8 | 114 | 97.2 | 
9 | N#CC1(CSc2nonc2/C(=N/O)Nc2ccc(F)c(Br)c2)CC1 [Example 68, N-(3-bromo-4-fluorophenvl)-4-{[(1-cyanocyclopropyl)methyl]sulfanyl}-N′-hydroxy-1,2,5-oxadiazole-3-carboximidamide] | 77.2 | 107 | 96.2 | 
10 | CNC(=O)N1CCC(Sc2nonc2/C(=N/O)Nc2ccc(F)c(Br)c2)CC1 [Example 104, 4-({4-[N-(3-bromo-4-fluorophenyl)-N′-hydroxycarbamimidoyl]-1,2,5-oxadiazol-3-yl}sulfanyl)-N-methylpiperidine-1-carboxamide] | 353 | 269 | 169 | 
11 | NS(=O)(=O)NCCSc1nsnc1/C(=N/O)Nc1ccc(F)c(Br)c1 [Example 47, N-(3-bromo-4-fluorophenyl)-N′-hydroxy-4-((2-(sulfamoylamino)ethyl)thio)-1,2,5-thiadiazole-3-carboximidamide] | 245 | 290 | 439 | 
12 | CN1C[C@H](CSc2nonc2/C(=N/O)Nc2ccc(F)c(Br)c2)NC1=O [Example 123, N-(3-bromo-4-fluorophenyl)-N′-hydroxy-4-({[(4R)-1-methyl-2-oxoimidazolidin-4-yl]methyl}sulfanyl)-1,2,5-oxadiazole-3-carboximidamide] | 75.7 | 37.8 | 44.2 | 
13 | CC(=O)N1CCC(Sc2nonc2/C(=N/O)Nc2ccc(F)c(Br)c2)CC1 [Example 87, 4-[(1-acetylpiperidin-4-yl)sulfanyl]-N-(3-bromo-4-fluorophenyl)-N′-hydroxy-1,2,5-oxadiazole-3-carboximidamide] | 70 | 133 | 99.7 | 
14 | O=C(CSc1nonc1/C(=N/O)Nc1ccc(F)c(Br)c1)NC1CC1 [Example 113, 2-({4-[N-(3-bromo-4-fluorophenyl)-N′-hydroxycarbamimidoyl]-1,2,5-oxadiazol-3-yl}sulfanyl)-N-cyclopropylacetamide] | 76.5 | 35.4 |  | 47.3
15 | CS(=O)(=O)NCCSc1nonc1/C(=N/O)Nc1ccc(F)c(C(F)F)c1 [Example 183, N-[3-(difluoromethyl)-4-fluorophenyl]-N′-hydroxy-4-({2-[(methylsulfonyl)amino]ethyl}sulfanyl)-1,2,5-oxadiazole-3-carboximidamide] | 58.2 | 25.6 | 52.5 | 
16 | CC(=O)NCCSc1nonc1/C(=N/O)Nc1cc(Br)c(F)cc1F [Example 58, N-[2-({4-[N-(5-bromo-2,4-difluorophenyl)-N′-hydroxycarbamimidoyl]-1,2,5-oxadiazol-3-yl}sulfanyl)ethyl]acetamide] | 154 | 290 | 136 | 

Second part, the molecule after the results:

Row | IC50 (IDO1 [1]) [nM] | IC50 (IDO1 [2]) [nM] | IC50 (IDO1 [3]; [4]) [nM] | IC50 (IDO1 [3]; IDO1 Enzyme Assay, IC50, nM) [nM] | SMILES
17 | 54.3 | 25.6 |  | 48.5 | CCNC(=O)CSc1nonc1C(=NO)Nc1ccc(F)c(Br)c1 [Example 110, 2-({4-[N-(3-bromo-4-fluorophenyl)-N′-hydroxycarbamimidoyl]-1,2,5-oxadiazol-3-yl}sulfanyl)-N-ethylacetamide]
18 | 112 | 131 | 72.2 |  | O=c1[nH]nc(CCSc2nonc2/C(=N/O)Nc2ccc(F)c(Br)c2)o1 [Example 141, N-(3-bromo-4-fluorophenyl)-N′-hydroxy-4-{[2-(5-oxo-4,5-dihydro-1,3,4-oxadiazol-2-yl)ethyl]sulfanyl}-1,2,5-oxadiazole-3-carboximidamide]
19 | 683 | 786 | 98.5 |  | OCCCCCCSc1nonc1/C(=N/O)Nc1ccc(F)c(Br)c1 [Example 53, N-(3-bromo-4-fluorophenyl)-N′-hydroxy-4-[(6-hydroxyhexyl)sulfanyl]-1,2,5-oxadiazole-3-carboximidamide]
20 | 48.3 | 43.1 | 30.1 |  | O=C(CCSc1nonc1/C(=N/O)Nc1ccc(F)c(Br)c1)NCCO [Example 107, 3-({4-[N-(3-bromo-4-fluorophenyl)-N′-hydroxycarbamimidoyl]-1,2,5-oxadiazol-3-yl}sulfanyl)-N-(2-hydroxyethyl)propanamide]
21 | 20.9 | 26.2 | 27.9 |  | CNC(=O)CCSc1nonc1/C(=N/O)Nc1ccc(F)c(Br)c1 [Example 70, 3-({4-[N-(3-bromo-4-fluorophenyl)-N′-hydroxycarbamimidoyl]-1,2,5-oxadiazol-3-yl}sulfanyl)-N-methylpropanamide]
22 | 75.9 | 11.5 | 22.8 |  | O=C1CC[C@H](CSc2nonc2/C(=N/O)Nc2ccc(F)c(Br)c2)N1 [Example 83, N-(3-bromo-4-fluorophenyl)-N′-hydroxy-4-({[(2R)-5-oxopyrrolidin-2-yl]methyl}sulfanyl)-1,2,5-oxadiazole-3-carboximidamide]
23 | 702 | 258 | 35.3 |  | O=C(NCCSc1nonc1C(=NO)Nc1ccc(F)c(Br)c1)NC1CCCC1 [Example 129, N-(3-bromo-4-fluorophenyI)-4-({2-[(cyclopentylcarbamoyl)amino]ethyl}sulfanyl)-N′-hydroxy-1,2,5-oxadiazole-3-carboximidamide]
24 | 106 | 376 | 27.2 |  | Nc1c(NCCSc2nonc2/C(=N/O)Nc2ccc(F)c(Br)c2)c(=O)c1=O [Example 73, 4-({2-[(2-amino-3,4-dioxocyclobut-1-en-1-yl)amino]ethyl}sulfanyl)-N-(3-bromo-4-fluorophenyl)-N′-hydroxy-1,2,5-oxadiazole-3-carboximidamide]
25 | 131 | 361 | 29.4 |  | NC(CCSc1nonc1/C(=N/O)Nc1ccc(F)c(Br)c1)C(=O)O (stereo not drawn) [Example 57, S-{4-[N-(3-bromo-4-fluorophenyl)-N′-hydroxycarbamimidoyl]-1,2,5-oxadiazol-3-yl}homocysteine]
26 | 685 | 446 |  | 59.6 | CN(C)C(=O)CSc1nonc1C(=NO)Nc1ccc(F)c(Br)c1 [Example 111, 2-({4-[N-(3-bromo-4-fluorophenyl)-N′-hydroxycarbamimidoyl]-1,2,5-oxadiazol-3-yl}sulfanyl)-N,N-dimethylacetamide]
27 | 31.7 | 33.1 |  | 32.1 | COCCNC(=O)NCCSc1nonc1C(=NO)Nc1ccc(F)c(Br)c1 [Example 132, N-(3-bromo-4-fluorophenyl)-N′-hydroxy-4-[(2-{[(2-methoxyethyl)carbamoyl]amino}ethyl)sulfanyl]-1,2,5-oxadiazole-3-carboximidamide]
28 | 40.2 | 188 | 64.9 |  | O=c1[nH]nc(CSc2nonc2/C(=N/O)Nc2ccc(F)c(Br)c2)[nH]1 [Example 34, N-(3-bromo-4-fluorophenyl)-N′-hydroxy-4-(((5-oxo-4,5-dihydro-1H-1,2,4-triazol-3-yl)methyl)thio)-1,2,5-oxadiazole-3-carboximidamide]
